According to ChEMBL document CHEMBL1133795, “Antagonists of the human CCR5 receptor as anti-HIV-1 agents. part 1: discovery and initial structure-activity relationships for 1 -amino-2-phenyl-4-(piperidin-1-yl)butanes” (Bioorg Med Chem Lett, 2001):

molecular target: T1, C-C chemokine receptor type 5 (Homo sapiens, UniProt P51681); assay: Binding affinity towards human CCR5 receptor in Chinese hamster ovary (CHO) cells using [125I]-MIP-1 alpha as radioligand; format: cell-based
Target sequence in this assay (P51681 whole entry): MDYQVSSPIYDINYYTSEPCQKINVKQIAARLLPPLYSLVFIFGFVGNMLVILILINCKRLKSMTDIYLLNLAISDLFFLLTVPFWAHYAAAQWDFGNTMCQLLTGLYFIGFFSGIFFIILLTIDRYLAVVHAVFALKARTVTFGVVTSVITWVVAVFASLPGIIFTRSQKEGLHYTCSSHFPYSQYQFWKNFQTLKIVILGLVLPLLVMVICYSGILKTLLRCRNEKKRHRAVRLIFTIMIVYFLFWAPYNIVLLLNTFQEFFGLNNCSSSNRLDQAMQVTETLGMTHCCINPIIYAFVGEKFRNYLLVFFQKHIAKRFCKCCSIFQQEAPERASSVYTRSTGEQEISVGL

IC50 [nM] | SMILES
40 | COc1ccc(S(=O)(=O)N(C)C[C@@H](CCN2CCC3(CC2)C[S+]([O-])c2ccccc23)c2ccc(Cl)c(Cl)c2)cc1 (stereo partly drawn)
1000 | CN(C[C@@H](CCN1CCC2(CC1)CSc1ccccc12)c1ccc(Cl)c(Cl)c1)S(=O)(=O)c1ccccc1
640 | CN(C[C@@H](CCN1CCC2(CC1)C[S+]([O-])c1ccccc12)c1ccc(Cl)c(Cl)c1)C(=O)Cc1ccccc1 (stereo partly drawn)
360 | CN(C[C@@H](CCN1CCC2(CC1)C[S+]([O-])c1ccccc12)c1ccc(Cl)c(Cl)c1)S(=O)(=O)c1cccc2ccccc12 (stereo partly drawn)
120 | CN(C[C@@H](CCN1CCC2(CC1)CS(=O)(=O)c1ccccc12)c1ccc(Cl)c(Cl)c1)S(=O)(=O)c1cccs1
150 | CN(C[C@@H](CCN1CCC2(CC1)CS(=O)(=O)c1ccccc12)c1ccc(Cl)c(Cl)c1)S(=O)(=O)c1cccc([N+](=O)[O-])c1
40 | CN(C[C@@H](CCN1CCC2(CC1)C[S+]([O-])c1ccccc12)c1ccc(Cl)c(Cl)c1)S(=O)(=O)c1ccc(Cl)cc1 (stereo partly drawn)
1400 | CCCCCCCCS(=O)(=O)N(C)C[C@@H](CCN1CCC2(CC1)C[S+]([O-])c1ccccc12)c1ccc(Cl)c(Cl)c1 (stereo partly drawn)
100 | CN(C[C@@H](CCN1CCC2(CC1)C[S+]([O-])c1ccccc12)c1ccc(Cl)c(Cl)c1)S(=O)(=O)c1cccnc1 (stereo partly drawn)
130 | CCN(C[C@@H](CCN1CCC2(CC1)C[S+]([O-])c1ccccc12)c1ccc(Cl)c(Cl)c1)S(=O)(=O)c1ccccc1 (stereo partly drawn)
60 | CN(C[C@@H](CCN1CCC2(CC1)C[S+]([O-])c1ccccc12)c1ccc(Cl)c(Cl)c1)S(=O)(=O)c1ccc2ccccc2c1 (stereo partly drawn)
1600 | O=S(=O)(NC[C@@H](CCN1CCC2(CC1)CSc1ccccc12)c1ccc(Cl)c(Cl)c1)c1ccccc1
590 | CN(C[C@@H](CCN1CCC2(CC1)C[S+]([O-])c1ccccc12)c1ccc(Cl)c(Cl)c1)S(=O)(=O)Cc1ccccc1 (stereo partly drawn)
100 | CN(C[C@@H](CCN1CCC2(CC1)C[S+]([O-])c1ccccc12)c1ccc(Cl)c(Cl)c1)S(=O)(=O)C1CCCCC1 (stereo partly drawn)
100 | CN(C[C@@H](CCN1CCC2(CC1)CS(=O)(=O)c1ccccc12)c1ccc(Cl)c(Cl)c1)S(=O)(=O)c1ccccc1
160 | CCN(C[C@@H](CCN1CCC2(CC1)CS(=O)(=O)c1ccccc12)c1ccc(Cl)c(Cl)c1)S(=O)(=O)c1ccccc1

IC50 [nM] | SMILES
80 | CN(C[C@@H](CCN1CCC2(CC1)C[S+]([O-])c1ccccc12)c1ccc(Cl)c(Cl)c1)S(=O)(=O)c1ccccc1Cl (stereo partly drawn)
120 | CN(C[C@@H](CCN1CCC2(CC1)C[S+]([O-])c1ccccc12)c1ccc(Cl)c(Cl)c1)S(=O)(=O)c1cnc2ccccc2c1 (stereo partly drawn)
35 | CN(C[C@@H](CCN1CCC2(CC1)C[S+]([O-])c1ccccc12)c1ccc(Cl)c(Cl)c1)S(=O)(=O)c1ccccc1 (stereo partly drawn)
60 | CN(C[C@@H](CCN1CCC2(CC1)C[S+]([O-])c1ccccc12)c1ccc(Cl)c(Cl)c1)S(=O)(=O)c1cccs1 (stereo partly drawn)
230 | O=S(=O)(NC[C@@H](CCN1CCC2(CC1)C[S+]([O-])c1ccccc12)c1ccc(Cl)c(Cl)c1)c1ccccc1 (stereo partly drawn)
40 | CN(C[C@@H](CCN1CCC2(CC1)C[S+]([O-])c1ccccc12)c1ccc(Cl)c(Cl)c1)S(=O)(=O)c1ccc(-c2ccccc2)cc1 (stereo partly drawn)
60 | CN(C[C@@H](CCN1CCC2(CC1)CS(=O)(=O)c1ccccc12)c1ccc(Cl)c(Cl)c1)S(=O)(=O)c1ccc([N+](=O)[O-])cc1
100 | CN(C[C@@H](CCN1CCC2(CC1)C[S+]([O-])c1ccccc12)c1ccc(Cl)c(Cl)c1)S(=O)(=O)C1CCCC1 (stereo partly drawn)
340 | CN(C[C@@H](CCN1CCC2(CC1)C[S+]([O-])c1ccccc12)c1ccc(Cl)c(Cl)c1)S(=O)(=O)c1cn(C)cn1 (stereo partly drawn)
10000 | CCN(C[C@@H](CCN1CCC2(CC1)CSc1ccccc12)c1ccc(Cl)c(Cl)c1)S(=O)(=O)c1ccccc1
70 | CN(C[C@@H](CCN1CCC2(CC1)C[S+]([O-])c1ccccc12)c1ccc(Cl)c(Cl)c1)S(=O)(=O)c1ccc2[nH]ccc2c1 (stereo partly drawn)
340 | CN(C)S(=O)(=O)N(C)C[C@@H](CCN1CCC2(CC1)C[S+]([O-])c1ccccc12)c1ccc(Cl)c(Cl)c1 (stereo partly drawn)
70 | CN(C[C@@H](CCN1CCC2(CC1)C[S+]([O-])c1ccccc12)c1ccc(Cl)c(Cl)c1)S(=O)(=O)c1cccc(Cl)c1 (stereo partly drawn)
90 | CN(C[C@@H](CCN1CCC2(CC1)C[S+]([O-])c1ccccc12)c1ccc(Cl)c(Cl)c1)S(=O)(=O)c1cccc2cccnc12 (stereo partly drawn)
1000 | CN(Cc1ccccc1)C[C@@H](CCN1CCC2(CC1)CS(=O)(=O)c1ccccc12)c1ccc(Cl)c(Cl)c1
850 | CN(C[C@@H](CCN1CCC2(CC1)C[S+]([O-])c1ccccc12)c1ccc(Cl)c(Cl)c1)S(C)(=O)=O (stereo partly drawn)

SMILES | IC50 [nM]
CN(C[C@@H](CCN1CCC2(CC1)C[S+]([O-])c1ccccc12)c1ccc(Cl)c(Cl)c1)C(=O)Oc1ccccc1 (stereo partly drawn) | 780

molecular target: T1, C-C chemokine receptor type 5; assay: (§1) Binding affinity towards human CCR5 receptor in Chinese hamster ovary (CHO) cells using [125I]-MIP-1 alpha as radioligand at a concentration of 4000 nM; format: cell-based
Target sequence in this assay (P51681 whole entry): as above

IC50 [nM] | SMILES
> 4000 | CN(C[C@@H](CCN1CCC2(CC1)C[S+]([O-])c1ccccc12)c1ccc(Cl)c(Cl)c1)S(=O)(=O)c1ccsc1 (stereo partly drawn)

molecular target: T1, C-C chemokine receptor type 5; assay: Binding affinity towards human CCR5 receptor in Chinese hamster ovary (CHO) cells using [125I]-MIP-1 alpha as radioligand at a concentration of 1000 nM; format: cell-based
Target sequence in this assay (P51681 whole entry, looked up): as the sequence (P51681 whole entry) above

inhibition [%] | SMILES
35 | CN(C[C@@H](CCN1CCC2(CC1)C[S+]([O-])c1ccccc12)c1ccc(Cl)c(Cl)c1)C(=O)OC(C)(C)C (stereo partly drawn)
40 | CN(Cc1ccccc1)C[C@@H](CCN1CCC2(CC1)C[S+]([O-])c1ccccc12)c1ccc(Cl)c(Cl)c1 (stereo partly drawn)

molecular target: T1, C-C chemokine receptor type 5; assay: as §1; format: cell-based
Target sequence in this assay (P51681 whole entry, looked up): as the sequence (P51681 whole entry) above

inhibition [%] | SMILES
0 | CNC[C@@H](CCN1CCC2(CC1)C[S+]([O-])c1ccccc12)c1ccc(Cl)c(Cl)c1 (stereo partly drawn)
22 | CN(C[C@@H](CCN1CCC2(CC1)C[S+]([O-])c1ccccc12)c1ccc(Cl)c(Cl)c1)C(=O)c1ccccc1 (stereo partly drawn)
20 | CN(C[C@@H](CCN1CCC2(CC1)C[S+]([O-])c1ccccc12)c1ccc(Cl)c(Cl)c1)S(=O)(=O)c1ccsc1 (stereo partly drawn)
0 | CN(C[C@@H](CCN1CCC2(CC1)CSc1ccccc12)c1ccc(Cl)c(Cl)c1)C(=O)c1ccccc1
2 | CN(C[C@@H](CCN1CCC2(CC1)CS(=O)(=O)c1ccccc12)c1ccc(Cl)c(Cl)c1)C(=O)c1ccccc1

molecular target: T1, C-C chemokine receptor type 5; assay: Binding affinity towards human CCR5 receptor in Chinese hamster ovary (CHO) cells using [125I]-MIP-1 alpha as radioligand at a concentration of 10000 nM; format: cell-based
Target sequence in this assay (P51681 whole entry, looked up): as the sequence (P51681 whole entry) above

inhibition [%] | SMILES
73 | CN(C[C@@H](CCN1CCC2(CC1)C[S+]([O-])c1ccccc12)c1ccc(Cl)c(Cl)c1)C(=O)N(C)c1ccccc1 (stereo partly drawn)
69 | CN(C[C@@H](CCN1CCC2(CC1)C[S+]([O-])c1ccccc12)c1ccc(Cl)c(Cl)c1)C(=O)Nc1ccccc1 (stereo partly drawn)
